Data set [1] addresses Acetylcholinesterase (Electrophorus electricus, UniProt O42275). The data set can be described thus: Inhibition of electric eel AChE using acetylthiocholine chloride as substrate incubated for 15 mins by Ellman's method. For orientation: In Ellman's method for cholinesterases, released thiocholine reacts with DTNB.
Data set [2] addresses Cholinesterase (Equus caballus, UniProt P81908). In words: Inhibition of equine serum BChE using butyrylthiocholine chloride as substrate incubated for 15 mins by Ellman's method.
Data set [3] in a line: Selectivity index, ratio of IC50 for equine serum BChE to IC50 for electric eel AChE.
Data set [4] has as its target T1, Acetylcholinesterase (Rattus norvegicus, UniProt P37136).
T1 sequence (P37136 whole entry): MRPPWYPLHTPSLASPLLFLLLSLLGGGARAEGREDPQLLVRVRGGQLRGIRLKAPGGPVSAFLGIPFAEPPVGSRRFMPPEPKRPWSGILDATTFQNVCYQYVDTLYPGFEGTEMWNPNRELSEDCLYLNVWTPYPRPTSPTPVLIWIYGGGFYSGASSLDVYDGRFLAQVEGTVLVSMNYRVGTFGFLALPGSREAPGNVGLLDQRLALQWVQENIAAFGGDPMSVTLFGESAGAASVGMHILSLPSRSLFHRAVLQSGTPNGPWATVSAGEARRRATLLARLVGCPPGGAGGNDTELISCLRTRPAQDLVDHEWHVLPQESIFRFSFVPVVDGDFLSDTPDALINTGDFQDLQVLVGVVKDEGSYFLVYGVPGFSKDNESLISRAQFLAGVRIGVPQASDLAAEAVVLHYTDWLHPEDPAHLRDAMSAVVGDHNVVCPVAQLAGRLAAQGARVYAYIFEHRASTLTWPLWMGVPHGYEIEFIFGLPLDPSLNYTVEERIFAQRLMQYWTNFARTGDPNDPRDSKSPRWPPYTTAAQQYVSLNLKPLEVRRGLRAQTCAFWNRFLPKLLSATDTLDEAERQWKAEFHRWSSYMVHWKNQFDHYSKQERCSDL
In words: Inhibition of rat cortex homogenate AChE using acetylthiocholine chloride as substrate incubated for 15 mins by Ellman's method.

For the next data set, the target named is Butyrylcholinesterase (Rattus norvegicus, UniProt Q9JKC1). The data set can be described thus: Inhibition of rat serum BChE using butyrylthiocholine chloride as substrate incubated for 15 mins by Ellman's method.
The target in data set [5] is Acetylcholinesterase (Homo sapiens, UniProt P22303). In words: Inhibition of human erythrocyte AChE using acetylthiocholine chloride as substrate incubated for 15 mins by Ellman's method.
Data set [6] has as its target Cholinesterase (Homo sapiens, UniProt P06276). The data set can be described thus: Inhibition of human serum BChE using butyrylthiocholine chloride as substrate incubated for 15 mins by Ellman's method.
The target in data set [7] is T2, Amine oxidase [flavin-containing] B (Homo sapiens, UniProt P27338).
T2 sequence (P27338 whole entry): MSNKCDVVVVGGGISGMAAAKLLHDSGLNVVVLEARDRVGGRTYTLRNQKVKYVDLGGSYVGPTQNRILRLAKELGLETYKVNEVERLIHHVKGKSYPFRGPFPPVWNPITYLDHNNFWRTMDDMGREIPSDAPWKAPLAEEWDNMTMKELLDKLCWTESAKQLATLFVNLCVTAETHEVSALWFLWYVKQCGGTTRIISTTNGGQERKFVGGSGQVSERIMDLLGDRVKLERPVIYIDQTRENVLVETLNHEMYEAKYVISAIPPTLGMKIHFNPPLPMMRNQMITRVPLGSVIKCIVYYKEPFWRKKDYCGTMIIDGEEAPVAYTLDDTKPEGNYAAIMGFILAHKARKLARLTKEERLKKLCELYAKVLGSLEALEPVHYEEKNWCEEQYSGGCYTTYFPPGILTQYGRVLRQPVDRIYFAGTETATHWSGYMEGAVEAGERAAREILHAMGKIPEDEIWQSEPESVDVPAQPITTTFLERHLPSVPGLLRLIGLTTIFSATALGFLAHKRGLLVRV
In words: Inhibition of human recombinant MAO-B expressed in baculovirus infected BTI insect cells using kynuramine as substrate after 30 mins by fluorescence assay. The format is cell-based.

Data set [8] concerns the target T3, Amine oxidase [flavin-containing] A (Homo sapiens, UniProt P21397).
T3 sequence (P21397 whole entry): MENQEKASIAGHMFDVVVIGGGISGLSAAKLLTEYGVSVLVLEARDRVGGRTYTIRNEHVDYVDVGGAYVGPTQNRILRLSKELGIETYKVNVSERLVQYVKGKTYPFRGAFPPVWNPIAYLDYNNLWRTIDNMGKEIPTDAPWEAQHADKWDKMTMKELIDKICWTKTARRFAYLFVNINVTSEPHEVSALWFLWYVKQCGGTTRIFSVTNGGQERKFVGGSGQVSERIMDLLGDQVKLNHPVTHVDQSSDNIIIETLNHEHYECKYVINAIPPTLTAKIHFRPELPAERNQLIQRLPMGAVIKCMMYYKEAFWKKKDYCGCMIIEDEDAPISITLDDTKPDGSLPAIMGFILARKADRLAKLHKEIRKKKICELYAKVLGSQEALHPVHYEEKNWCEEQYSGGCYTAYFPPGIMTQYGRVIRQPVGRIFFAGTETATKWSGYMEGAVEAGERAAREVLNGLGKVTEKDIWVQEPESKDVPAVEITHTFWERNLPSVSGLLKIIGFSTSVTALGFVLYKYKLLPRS
In words: Inhibition of human recombinant MAO-A expressed in baculovirus infected BTI insect cells at 20 uM using kynuramine as substrate after 30 mins by fluorescence assay relative to control. Particulars: 0.5 h.

Data set [9] addresses Acetylcholinesterase (Electrophorus electricus) (UniProt O42275). The data set can be described thus: Inhibition of electric eel AChE at 50 uM using acetylthiocholine chloride as substrate incubated for 15 mins by Ellman's method relative to control.
The target in data set [10] is Cholinesterase (Equus caballus) (UniProt P81908). In words: Inhibition of equine serum BChE at 50 uM using butyrylthiocholine chloride as substrate incubated for 15 mins by Ellman's method relative to control.
Data set [11] addresses T4, Acetylcholinesterase (Rattus norvegicus) (UniProt P37136).
T4 sequence (whole entry): T1 sequence (P37136 whole entry)
The data set can be described thus: Inhibition of rat cortex homogenate AChE at 50 uM using acetylthiocholine chloride as substrate incubated for 15 mins by Ellman's method relative to control.

Data set [12] has as its target Butyrylcholinesterase (Rattus norvegicus) (UniProt Q9JKC1). The data set can be described thus: Inhibition of rat serum BChE at 50 uM using butyrylthiocholine chloride as substrate incubated for 15 mins by Ellman's method relative to control.
The target in data set [13] is Acetylcholinesterase (Electrophorus electricus) (UniProt O42275). The data set can be described thus: Mixed-type inhibition of electric eel AChE at 0.5 to 2 uM using acetylthiocholine chloride as substrate by Lineweaver-Burk plot analysis.
In data set [14] the test system is SH-SY5Y. In words: Cytotoxicity against human SH-SY5Y cells assessed as decrease in cell viability up to 10 uM after 24 hrs by MTT assay. It counts as cell-based. For orientation: Tetrazolium dyes change colour on reduction, which living cells bring about.
Data set [15] relates to SH-SY5Y. In words: Cytotoxicity against human SH-SY5Y cells assessed as decrease in cell viability at 100 uM after 24 hrs by MTT assay. It counts as cell-based.
The nature of data set [16]: Effective permeability of the compound at 100 ug/ml by PAMPA-BBB assay. In general terms: The PAMPA barrier holds no transporters, so it reflects passive diffusion.

SMILES strings stand for the structures. The source made the active and inactive calls. The rule behind the calls is not given here.

Butyrylcholinesterase, sequence (Q9JKC1 whole entry): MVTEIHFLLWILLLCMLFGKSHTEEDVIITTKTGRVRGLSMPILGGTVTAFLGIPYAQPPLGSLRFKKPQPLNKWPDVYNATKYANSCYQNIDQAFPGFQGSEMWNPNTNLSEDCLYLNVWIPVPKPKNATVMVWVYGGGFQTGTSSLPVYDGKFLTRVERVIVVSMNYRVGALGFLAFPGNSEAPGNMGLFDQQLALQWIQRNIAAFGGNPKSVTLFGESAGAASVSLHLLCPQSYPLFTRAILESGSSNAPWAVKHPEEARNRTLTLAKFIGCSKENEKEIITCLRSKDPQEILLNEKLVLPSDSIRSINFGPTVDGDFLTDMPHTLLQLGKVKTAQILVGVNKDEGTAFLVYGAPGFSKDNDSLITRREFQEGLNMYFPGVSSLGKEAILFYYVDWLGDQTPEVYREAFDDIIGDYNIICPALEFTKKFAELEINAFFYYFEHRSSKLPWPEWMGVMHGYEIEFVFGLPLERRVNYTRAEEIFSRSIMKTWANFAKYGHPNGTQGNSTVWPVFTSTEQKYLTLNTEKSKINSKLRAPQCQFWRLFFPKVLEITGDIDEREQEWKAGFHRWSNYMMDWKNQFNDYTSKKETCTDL
Acetylcholinesterase (Electrophorus electricus, UniProt O42275), sequence (O42275 whole entry): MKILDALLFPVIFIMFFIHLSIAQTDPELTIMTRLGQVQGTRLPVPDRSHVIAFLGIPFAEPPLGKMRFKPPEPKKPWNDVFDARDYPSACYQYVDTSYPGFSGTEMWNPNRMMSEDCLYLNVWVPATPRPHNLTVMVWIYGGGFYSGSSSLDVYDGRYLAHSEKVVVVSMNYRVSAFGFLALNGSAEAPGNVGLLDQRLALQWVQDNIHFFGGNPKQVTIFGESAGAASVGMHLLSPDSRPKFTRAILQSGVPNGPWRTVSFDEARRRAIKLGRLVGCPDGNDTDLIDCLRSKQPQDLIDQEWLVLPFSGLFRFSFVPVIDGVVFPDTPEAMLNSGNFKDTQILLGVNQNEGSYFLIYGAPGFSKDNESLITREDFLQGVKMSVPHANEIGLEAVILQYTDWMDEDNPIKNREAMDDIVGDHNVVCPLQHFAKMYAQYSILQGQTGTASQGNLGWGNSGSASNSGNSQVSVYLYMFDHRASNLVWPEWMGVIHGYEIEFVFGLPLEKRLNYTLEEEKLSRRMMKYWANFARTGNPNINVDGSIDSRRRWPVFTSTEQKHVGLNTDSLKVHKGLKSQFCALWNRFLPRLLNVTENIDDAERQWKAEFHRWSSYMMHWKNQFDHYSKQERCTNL
Cholinesterase (Homo sapiens, UniProt P06276), sequence (P06276 whole entry): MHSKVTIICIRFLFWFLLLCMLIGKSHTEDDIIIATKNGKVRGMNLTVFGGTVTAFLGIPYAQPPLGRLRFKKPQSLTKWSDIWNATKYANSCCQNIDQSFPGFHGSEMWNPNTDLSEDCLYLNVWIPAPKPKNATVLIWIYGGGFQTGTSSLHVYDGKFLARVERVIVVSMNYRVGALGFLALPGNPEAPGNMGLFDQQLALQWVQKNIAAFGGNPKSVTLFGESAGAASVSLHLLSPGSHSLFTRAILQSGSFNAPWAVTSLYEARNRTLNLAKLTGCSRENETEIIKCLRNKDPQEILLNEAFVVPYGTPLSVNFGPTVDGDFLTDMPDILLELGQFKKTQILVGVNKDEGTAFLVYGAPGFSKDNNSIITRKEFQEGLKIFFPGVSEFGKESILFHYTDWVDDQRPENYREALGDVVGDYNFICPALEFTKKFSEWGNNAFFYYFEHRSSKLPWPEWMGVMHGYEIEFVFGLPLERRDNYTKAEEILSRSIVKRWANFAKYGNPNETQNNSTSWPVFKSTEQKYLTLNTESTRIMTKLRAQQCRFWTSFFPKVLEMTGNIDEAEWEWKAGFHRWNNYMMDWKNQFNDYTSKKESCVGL
Acetylcholinesterase (Homo sapiens, UniProt P22303), sequence (P22303 whole entry): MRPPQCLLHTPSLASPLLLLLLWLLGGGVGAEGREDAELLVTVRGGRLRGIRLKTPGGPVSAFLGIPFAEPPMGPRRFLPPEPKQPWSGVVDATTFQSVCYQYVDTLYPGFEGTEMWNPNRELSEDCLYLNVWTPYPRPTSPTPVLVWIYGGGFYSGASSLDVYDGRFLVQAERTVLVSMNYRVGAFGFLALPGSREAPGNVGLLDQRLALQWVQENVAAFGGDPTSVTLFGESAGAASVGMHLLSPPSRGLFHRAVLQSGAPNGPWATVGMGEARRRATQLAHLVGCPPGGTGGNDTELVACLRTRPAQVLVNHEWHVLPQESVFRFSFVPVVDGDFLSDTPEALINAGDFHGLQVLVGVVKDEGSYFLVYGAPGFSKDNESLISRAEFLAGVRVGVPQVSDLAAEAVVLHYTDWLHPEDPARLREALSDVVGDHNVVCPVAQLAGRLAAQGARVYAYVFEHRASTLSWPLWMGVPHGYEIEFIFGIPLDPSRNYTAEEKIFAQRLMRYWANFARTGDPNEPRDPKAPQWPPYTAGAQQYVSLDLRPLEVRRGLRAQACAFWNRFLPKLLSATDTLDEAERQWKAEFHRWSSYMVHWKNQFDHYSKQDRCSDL
Cholinesterase (Equus caballus, UniProt P81908), sequence (P81908 whole entry): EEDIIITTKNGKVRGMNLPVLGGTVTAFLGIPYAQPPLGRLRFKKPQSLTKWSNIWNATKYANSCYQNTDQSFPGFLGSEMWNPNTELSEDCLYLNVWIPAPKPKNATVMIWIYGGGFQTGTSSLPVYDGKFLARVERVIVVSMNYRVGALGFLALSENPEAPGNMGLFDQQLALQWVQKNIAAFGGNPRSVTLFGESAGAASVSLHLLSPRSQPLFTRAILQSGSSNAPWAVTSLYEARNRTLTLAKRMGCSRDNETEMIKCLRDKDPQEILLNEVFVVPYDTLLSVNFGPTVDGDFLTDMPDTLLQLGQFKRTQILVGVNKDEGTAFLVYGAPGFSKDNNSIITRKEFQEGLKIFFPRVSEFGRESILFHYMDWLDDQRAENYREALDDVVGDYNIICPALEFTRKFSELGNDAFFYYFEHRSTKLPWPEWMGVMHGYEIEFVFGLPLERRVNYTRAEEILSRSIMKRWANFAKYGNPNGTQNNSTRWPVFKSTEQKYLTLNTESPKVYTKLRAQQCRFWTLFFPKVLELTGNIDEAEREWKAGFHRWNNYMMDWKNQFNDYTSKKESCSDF
Acetylcholinesterase (Electrophorus electricus), sequence (O42275 24-633 limits assumed): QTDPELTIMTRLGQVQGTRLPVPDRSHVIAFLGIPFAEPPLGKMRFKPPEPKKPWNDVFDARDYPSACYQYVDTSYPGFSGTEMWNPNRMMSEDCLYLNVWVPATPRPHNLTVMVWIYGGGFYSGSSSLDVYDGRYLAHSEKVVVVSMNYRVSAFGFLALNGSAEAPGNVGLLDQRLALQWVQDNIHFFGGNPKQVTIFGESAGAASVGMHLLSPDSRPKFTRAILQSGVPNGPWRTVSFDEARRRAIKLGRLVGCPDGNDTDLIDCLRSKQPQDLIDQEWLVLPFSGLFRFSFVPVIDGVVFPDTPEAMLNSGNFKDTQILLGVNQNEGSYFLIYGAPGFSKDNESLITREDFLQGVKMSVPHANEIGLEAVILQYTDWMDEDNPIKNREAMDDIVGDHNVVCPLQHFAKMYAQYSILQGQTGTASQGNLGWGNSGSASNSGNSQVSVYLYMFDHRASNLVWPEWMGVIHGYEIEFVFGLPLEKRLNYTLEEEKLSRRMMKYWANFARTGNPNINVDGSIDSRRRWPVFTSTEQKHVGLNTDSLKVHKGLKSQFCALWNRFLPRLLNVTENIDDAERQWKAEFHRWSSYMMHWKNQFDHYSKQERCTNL
Butyrylcholinesterase (Rattus norvegicus), sequence (Q9JKC1 as listed by the source): as the sequence (Q9JKC1 whole entry) above
Cholinesterase (Equus caballus), sequence (P81908 whole entry): as the sequence (P81908 whole entry) above

Usually IC50 stands for the concentration that inhibits the measured activity by half. As a reminder, the inhibition is the drop in the measured response relative to a control, in per cent. In the case of `CCN(CCCCN1C(=O)c2ccccc2C1=O)Cc1ccccc1`, the IC50 was determined as 0.43 µM at Acetylcholinesterase [1]; 9.8 µM on Cholinesterase [2]; 0.6 µM against Acetylcholinesterase [4]; 13.3 µM at Butyrylcholinesterase; 0.68 µM against Acetylcholinesterase [5]; 15.3 µM against Cholinesterase [6]. The IC50 in [7] turned out to be 6.9 µM. For the same compound, the Ratio IC50 in data set [3] was determined as 22.8. In addition, in data set [8], the inhibition at 20 µM is less than 5%.
Consider `CCN(CCCN1C(=O)c2ccccc2C1=O)Cc1ccccc1OC`, for which the IC50 came to 0.9 µM on Acetylcholinesterase [1]; 11.3 µM at Cholinesterase [2]; 0.4 µM at Acetylcholinesterase [4]; 9.4 µM against Butyrylcholinesterase; 4.5 µM on Acetylcholinesterase [5]; 14.6 µM against Cholinesterase [6]. The IC50 in data set [7] amounted to 4.7 µM. Besides, the Ratio IC50 in data set [3] is 12.6. The inhibition at 20 µM in [8] was less than 5%.
Turning to `O=C1NC(=O)c2ccccc21`, the inhibition in data set [9], in data set [10], in data set [11] and in data set [12] was less than 5% throughout.
Regarding `CCN(CCCCCCN1C(=O)c2ccccc2C1=O)Cc1ccccc1`, the IC50 at Acetylcholinesterase [1] came out at 1 µM; against Cholinesterase [2] it was 11 µM; against Acetylcholinesterase [4] it was 3.4 µM; against Butyrylcholinesterase, 18.1 µM; against Acetylcholinesterase [5], 3.7 µM; on Cholinesterase [6] it was 15.8 µM. Also, in data set [7], the IC50 is 12.2 µM. Besides, in data set [3], the Ratio IC50 amounted to 11. Also, the inhibition at 20 µM in data set [8] is less than 5%.
With `CCN(CCCCN1C(=O)c2ccccc2C1=O)Cc1ccccc1OC`, the IC50 came to 0.13 µM against Acetylcholinesterase [1]; 31 µM against Cholinesterase [2]; 0.04 µM at Acetylcholinesterase [4]; 18.9 µM against Butyrylcholinesterase; 0.28 µM against Acetylcholinesterase [5]; 12.9 µM against Cholinesterase [6]. Further, in data set [7], the IC50 is 9.4 µM. Further, the Ratio IC50 in data set [3] worked out at 238. Moreover, the inhibition at 20 µM in data set [8] is less than 5%.
One may read the Papp as a coefficient for how fast a substance crosses the barrier. A lower Papp goes with poor permeation. Consider `C#CCN(CCCN1C(=O)c2ccccc2C1=O)Cc1ccccc1`, for which the IC50 against Acetylcholinesterase [1] stood at 0.84 µM; on Cholinesterase [2] it was 2.5 µM; against Acetylcholinesterase [4] it was 0.27 µM; against Butyrylcholinesterase it was 2.2 µM; against Acetylcholinesterase [5], 1.2 µM; on Cholinesterase [6], 3.8 µM. For the same compound, the IC50 in [7] came out at 2.6 µM. For the same compound, the Ratio IC50 in [3] is 3. Also, in [8], the inhibition at 20 µM was less than 5%. Further, the inhibition entry in data set [13] was “Active”. For the same compound, the Activity entry in the data set on SH-SY5Y [14] is listed as “Non-Toxic”; in the data set with SH-SY5Y [15] it was 86.7%. The Papp at 100 ug/ml in [16] was 26 ×10⁻⁶ cm/s.
In the case of `C#CCN[C@@H]1CCc2ccccc21` [RASAGILINE], the figures for the IC50 against Acetylcholinesterase [5] and against Cholinesterase [6] were 0.019 µM and 4.76 µM, respectively.
Take `CCN(CCCCCCN1C(=O)c2ccccc2C1=O)Cc1ccccc1OC`: the IC50 came out at 0.38 µM against Acetylcholinesterase [1]; 7.3 µM on Cholinesterase [2]; 0.33 µM against Acetylcholinesterase [4]; 14.9 µM on Butyrylcholinesterase; 0.59 µM against Acetylcholinesterase [5]; 8.9 µM against Cholinesterase [6]. Also, the IC50 in data set [7] turned out to be 11.7 µM. For the same compound, the Ratio IC50 in data set [3] turned out to be 19.2. Further, the inhibition at 20 µM in data set [8] is less than 5%.
As to `COc1ccccc1CN(C)CCCCN1C(=O)c2ccccc2C1=O`, the IC50 against Acetylcholinesterase [1] is 1.3 µM; at Cholinesterase [2] it was 7.9 µM; against Acetylcholinesterase [4], 3.7 µM; on Butyrylcholinesterase, 9.1 µM; in data set [7], 11.6 µM. Moreover, in data set [3], the Ratio IC50 amounted to 6.1. Besides, the inhibition at 20 µM in data set [8] was less than 5%.

(Values after ChEMBL document CHEMBL4043275, “Design, synthesis and biological evaluation of phthalimide-alkylamine derivatives as balanced multifunctional cholinesterase and monoamine oxidase-B inhibitors for the treatment of Alzheimer's disease” (Bioorg Med Chem Lett, 2017).)
